In data set [1] the target is T1, Cannabinoid receptor 2 (Homo sapiens, UniProt P34972). Description: Partial agonist activity at human CB2 receptor expressed in CHO-K1 cells assessed as reduction in NKH-477 induced cAMP production by measuring maximal efficacy by chemiluminescence based cAMP hunter assay relative to control. It counts as functional, cell-based. As to conditions: filed as partial agonist. For orientation: Cyclic AMP is a second messenger, typically raised through Gs and lowered through Gi signalling.
T1 sequence (P34972 whole entry): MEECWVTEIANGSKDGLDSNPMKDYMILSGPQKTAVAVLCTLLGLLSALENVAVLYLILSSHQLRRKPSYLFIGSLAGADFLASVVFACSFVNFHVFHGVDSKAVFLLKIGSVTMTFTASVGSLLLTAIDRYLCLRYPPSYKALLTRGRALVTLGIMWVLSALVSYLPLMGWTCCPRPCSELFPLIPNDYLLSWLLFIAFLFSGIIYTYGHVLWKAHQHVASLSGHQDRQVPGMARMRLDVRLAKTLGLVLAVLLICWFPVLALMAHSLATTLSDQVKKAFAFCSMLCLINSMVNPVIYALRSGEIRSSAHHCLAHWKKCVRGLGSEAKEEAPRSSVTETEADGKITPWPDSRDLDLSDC

Data set [2] concerns the target T1, Cannabinoid receptor 2. Description: Displacement of [3H]CP55940 from recombinant human CB2 receptor expressed in HEK293 cell membrane assessed as inhibition constant incubated for 90 mins by competition binding assay. It is filed as cell membranes. As to conditions: read-out: Ki. A general note: Loss of bound radioactivity is the signal in a displacement assay; it reports binding, not function.

Data set [3] in a line: Chemical stability of compound in phosphate buffer at pH 7.4 assessed as compound remaining at 5 uM measured after 0.5 hrs by UHPLC-MS analysis. It is filed as physicochemical. To be noted: read-out: Stability.
In data set [4] the target is T1, Cannabinoid receptor 2. In words: Partial agonist activity at human CB2 receptor expressed in CHO-K1 cells assessed as reduction in NKH-477 induced cAMP production by chemiluminescence based cAMP hunter assay. It is filed as functional, cell-based.
Data set [5] is described as follows: Chemical stability of compound in phosphate buffer at pH 7.4 assessed as compound remaining at 5 uM measured after 1.5 hrs by UHPLC-MS analysis. It is filed as physicochemical. As to conditions: read-out: Stability.
A short description of data set [6]: Chemical stability of compound in phosphate buffer at pH 7.4 assessed as compound remaining at 5 uM measured after 2 hrs by UHPLC-MS analysis. It counts as physicochemical. To be noted: read-out: Stability.
The target of data set [7] is T2, Cannabinoid receptor 1 (Homo sapiens, UniProt P21554). In words: Displacement of [3H]CP55940 from recombinant human CB1 receptor expressed in HEK293 cell membrane assessed as inhibition constant incubated for 90 mins by competition binding assay. It is filed as cell membranes. To be noted: read-out: Ki.
T2 sequence (P21554 whole entry): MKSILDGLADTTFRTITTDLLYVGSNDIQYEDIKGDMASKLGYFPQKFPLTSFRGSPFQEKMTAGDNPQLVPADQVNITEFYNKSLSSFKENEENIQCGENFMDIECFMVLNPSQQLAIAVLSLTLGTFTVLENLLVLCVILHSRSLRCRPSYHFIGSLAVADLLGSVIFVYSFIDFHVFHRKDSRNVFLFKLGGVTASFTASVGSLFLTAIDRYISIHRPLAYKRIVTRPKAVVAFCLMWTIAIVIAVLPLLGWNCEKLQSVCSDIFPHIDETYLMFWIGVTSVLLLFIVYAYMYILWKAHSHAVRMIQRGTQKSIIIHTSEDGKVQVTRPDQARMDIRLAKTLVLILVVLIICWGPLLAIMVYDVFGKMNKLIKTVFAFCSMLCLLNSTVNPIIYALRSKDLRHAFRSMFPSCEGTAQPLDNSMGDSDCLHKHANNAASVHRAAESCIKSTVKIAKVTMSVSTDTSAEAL
Data set [8] concerns the target T2, Cannabinoid receptor 1. In words: Displacement of [3H]CP55940 from recombinant human CB1 receptor expressed in HEK293 cell membrane incubated for 90 mins by competition binding assay. It counts as cell membranes. To be noted: read-out: IC50.
Data set [9] deals with T1, Cannabinoid receptor 2. In words: Displacement of [3H]CP55940 from recombinant human CB2 receptor expressed in HEK293 cell membrane incubated for 90 mins by competition binding assay. It is filed as cell membranes. As to conditions: read-out: IC50.
Data set [10] is described as follows: Chemical stability of compound in phosphate buffer at pH 7.4 assessed as compound remaining at 5 uM measured after 1 hrs by UHPLC-MS analysis. It counts as physicochemical. To be noted: read-out: Stability.
The subject of data set [11] is Mus musculus. Description: Cognitive enhancing activity in scopolamine induced amnesia male C57/BL6J mouse model assessed as novel arm exploration time at 1 mg/kg, ip preadministered with compound for 10 mins followed by scopolamine administration for 30 mins and measured after 30 mins by Y-maze test (reference value: 9.28 +/- 1.03 sec). It is filed as functional. As to conditions: time 70 min, 1.167 h.

For data set [12], the system named is Mus musculus. In words: Cognitive enhancing activity in scopolamine induced amnesia male C57/BL6J mouse model assessed as latency time to enter novel arm at 1 mg/kg, ip preadministered with compound for 10 mins followed by scopolamine administration for 30 mins and measured after 30 mins by Y-maze test (reference value: 21.93 +/- 0.78 sec). It counts as functional. As to conditions: time 70 min, 1.167 h.

Consider `O=C(Nc1cccc2ccccc12)c1cccn1Cc1ccc(F)cc1`, for which, in [1], the Emax (in general, the greatest response seen or fitted, relative to the assay's reference) turned out to be 43.1%. The Ki (as a rule, the dissociation constant of the complex between target and ligand, obtained from inhibition or displacement) is 0.06 µM in [2] and above 10 µM in data set [7]. The remaining at 0.5 h, 5 µM in data set [3] was 101%. The EC50 (usually the concentration that produces a half-maximal response) in data set [4] came to 6.11 µM. In addition, in data set [5], the remaining at 1.5 h, 5 µM was 103%. In [6], the remaining at 2 h, 5 µM came to 99.2%. Besides, the IC50 – broadly, the concentration that gives 50% inhibition – was above 10 µM in data set [8] and 0.39 µM in data set [9]. In addition, in data set [10], the remaining at 1 h, 5 µM is 101%.

As to `Cc1c(C(=O)NN2CCCCC2)nn(-c2ccc(Cl)cc2Cl)c1-c1ccc(I)cc1`, the Time in data set [11] was 28.6 s; in data set [12], 11.01 s.

The values above are taken from ChEMBL document CHEMBL5512638, “Novel pyrrole based CB2 agonists: New insights on CB2 receptor role in regulating neurotransmitters' tone” (Eur J Med Chem, 2024).
